Assay [1] addresses T1, RORγ-LBD (Homo sapiens, UniProt P51449).
T1 construct: made in house; host or cells: SF9 cells (baculovirus); used as diluted lysate
T1 sequence (P51449 269-508 limits assumed): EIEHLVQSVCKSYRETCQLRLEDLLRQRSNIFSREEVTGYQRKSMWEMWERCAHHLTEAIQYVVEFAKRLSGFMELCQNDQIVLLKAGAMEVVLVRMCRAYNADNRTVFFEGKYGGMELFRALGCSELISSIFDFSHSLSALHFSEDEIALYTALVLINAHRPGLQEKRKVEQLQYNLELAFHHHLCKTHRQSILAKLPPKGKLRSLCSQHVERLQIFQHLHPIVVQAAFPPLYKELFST
As to the kind of experiment: RORγ-Ligand Binding Domain (LBD) TR-FRET Assay. It is filed as biochemical. The following applies: RORγ-LBD TR-FRET. An outline of the steps: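 This TR-FRET coactivator assay pairs baculovirus-expressed His-RORγ-LBD (~3 nM final) with biotin-SRC1 LXXLL peptide at 200 nM final in pH 7.0 Tris/KCl/EDTA/DTT/BSA buffer.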
(TR-FRET usually uses a lanthanide donor and a delayed reading to cut background.)

Assay [2] deals with T2, Gal4-RORγ-LBD (Homo sapiens, UniProt P51449).
T2 construct: expressed in transfected cells
T2 sequence (P51449 269-508 limits assumed): T1 sequence (P51449 269-508 limits assumed)
As to the kind of experiment: Gal4-RORγ Luciferase Reporter Assay in HEK-293T Cells. The settings on record: HEK-293 cells, luciferase reporter, with ursolic acid. The assay is classed as cell-based. A digest of the protocol: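 HEK-293 cells were co-transfected with Gal4-RORγ-LBD and a Gal4-luciferase reporter, then exposed overnight at 37 °C to compounds with […] ursolic acid present (0.2% DMSO). Luminescence was read with One-Glo after 10 min at RT, untreated signal was set as 100, and Max Response was taken as the upper plateau of a 4-parameter logistic fit.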
A general note: In a reporter assay the amount or activity of a reporter protein is the signal.

Bounds are passed on as bounds.

Take `CCn1cc(S(=O)(=O)N2C[C@H](CCC(=O)OC)Oc3ccc(/C=C(\C)c4c(F)cccc4Cl)cc32)c(Cl)n1` [Example 86H, (S,E)-methyl 3-(4-((3-chloro-1-ethyl-1H-pyrazol-4-yl)sulfonyl)-6-(2-(2-chloro-6-fluorophenyl)prop-1-en-1-yl)-3,4-dihydro-2H-benzo[b][1,4]oxazin-2-yl)propanoate]: the EC50 is less than 500 nM in assay [1] and 500 to 5000 nM in assay [2].
As to `CCOc1nn(CC)cc1S(=O)(=O)N1C[C@H](CCC(=O)O)Oc2ccc(/C=C(\C)c3c(F)cccc3Cl)cc21` [Example 86I, (S,E)-3-(6-(2-(2-chloro-6-fluorophenyl)prop-1-en-1-yl)-4-((3-ethoxy-1-ethyl-1H-pyrazol-4-yl)sulfonyl)-3,4-dihydro-2H-benzo[b][1,4]oxazin-2-yl)propanoic acid], the EC50 is less than 500 nM in assay [1] and 500 to 5000 nM in assay [2].
As to `CCOc1nn(CC)cc1S(=O)(=O)N1C[C@H](CCC(=O)OC)Oc2ccc(/C=C(\C)c3c(F)cccc3Cl)cc21` [Example 86J, (S,E)-methyl 3-(6-(2-(2-chloro-6-fluorophenyl)prop-1-en-1-yl)-4-((3-ethoxy-1-ethyl-1H-pyrazol-4-yl)sulfonyl)-3,4-dihydro-2H-benzo[b][1,4]oxazin-2-yl)propanoate], the EC50 in assay [1] and in assay [2] was less than 500 nM in each case.
For the compound `COc1nn2c(c1S(=O)(=O)N1C[C@H](CCC(=O)O)Oc3ccc(/C=C(\C)c4c(F)cccc4Cl)cc31)CCCC2` [Example 86K, (S,E)-3-(6-(2-(2-chloro-6-fluorophenyl)prop-1-en-1-yl)-4-((2-methoxy-4,5,6,7-tetrahydropyrazolo[1,5-a]pyridin-3-yl)sulfonyl)-3,4-dihydro-2H-benzo[b][1,4]oxazin-2-yl)propanoic acid], the EC50 in assay [1] and in assay [2] was less than 500 nM in each case.
`COC(=O)CC[C@H]1CN(S(=O)(=O)c2c(OC)nn3c2CCCC3)c2cc(/C=C(\C)c3c(F)cccc3Cl)ccc2O1` [Example 86L, (S,E)-methyl 3-(6-(2-(2-chloro-6-fluorophenyl)prop-1-en-1-yl)-4-((2-methoxy-4,5,6,7-tetrahydropyrazolo[1,5-a]pyridin-3-yl)-sulfonyl)-3,4-dihydro-2H-benzo[b][1,4]oxazin-2-yl)-propanoate]: the EC50 in assay [1] and in assay [2] was less than 500 nM throughout.
On to `COc1cccc(S(=O)(=O)N2C[C@H](CCC(=O)O)Oc3ccc(/C=C(\C)c4c(F)cccc4Cl)cc32)c1` [Example 86M, (S,E)-3-(6-(2-(2-chloro-6-fluorophenyl)prop-1-en-1-yl)-4-((3-methoxyphenyl)sulfonyl)-3,4-dihydro-2H-benzo[b][1,4]oxazin-2-yl)propanoic acid], for which the results for the EC50 in assay [1] and in assay [2] were less than 500 nM and 500 to 5000 nM, respectively.
For `COC(=O)CC[C@H]1CN(S(=O)(=O)c2cccc(OC)c2)c2cc(/C=C(\C)c3c(F)cccc3Cl)ccc2O1` [Example 86N, (S,E)-methyl 3-(6-(2-(2-chloro-6-fluorophenyl)prop-1-en-1-yl)-4-((3-methoxyphenyl)sulfonyl)-3,4-dihydro-2H-benzo[b][1,4]oxazin-2-yl)propanoate] the same measures were less than 500 nM and less than 500 nM.
As to `C/C(=C\c1ccc2c(c1)N(S(=O)(=O)c1cccc(OC(F)F)c1)C[C@H](CCC(=O)O)O2)c1c(F)cccc1Cl` [Example 86O, (S,E)-3-(6-(2-(2-chloro-6-fluorophenyl)prop-1-en-1-yl)-4-((3-(difluoromethoxy)phenyl)-sulfonyl)-3,4-dihydro-2H-benzo[b][1,4]oxazin-2-yl)propanoic acid], the half-maximal effective concentration (EC50) was less than 500 nM in assay [1] and 500 to 5000 nM in assay [2].
As to `COC(=O)CC[C@H]1CN(S(=O)(=O)c2cccc(OC(F)F)c2)c2cc(/C=C(\C)c3c(F)cccc3Cl)ccc2O1` [Example 86P, (S,E)-methyl 3-(6-(2-(2-chloro-6-fluorophenyl)prop-1-en-1-yl)-4-((3-(difluoromethoxy)phenyl)-sulfonyl)-3,4-dihydro-2H-benzo[b][1,4]oxazin-2-yl)propanoate], the EC50 in assay [1] was less than 500 nM; in assay [2] it was 500 to 5000 nM.

The EC50 is the concentration at which the effect is half-maximal.

Values taken from patent publication US9896441B2 (Lycera Corporation, priority 2014, dated 2018).
